Data published in the supplement of paper PMC11061612.

How the values were obtained:
[1] = compound: C1CN(CCC1(C(=O)N[C@@H](CCO)C2=CC=C(C=C2)Cl)N)C3=NC=NC4=C3C=CN4 [Capivasertib]; details: max 10 µM
Outline: (§1)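 Cancer cell lines were seeded into 1536-well plates in 7.5 μl medium (DMEM/F12 or RPMI, 10% FBS), held 24 hours at 37°C and 5% CO2, and dosed for 72 hours with final DMSO typically 0.2%. Luminescence from CellTiter-Glo 2.0, scaled between blank-well and DMSO-well means, served as viability. The single-agent IC50 was obtained from dose-response fits with a non-linear mixed effects model, each fit being a two-parameter logistic curve.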

[2] = compound: C=CCn1c(=O)c2cnc(Nc3ccc(N4CCN(C)CC4)cc3)nc2n1-c1cccc(C(C)(C)O)n1 [AZD1775]; details: max 3 µM
Outline: as §1

[3] = compound: CC(=O)Nc1cccc(-n2c(=O)n(C3CC3)c(=O)c3c(Nc4ccc(I)cc4F)n(C)c(=O)c(C)c32)c1 [Trametinib]; details: max 1 µM
Outline: as §1

[4] = compound: CC(=O)c1c(C)c2cnc(Nc3ccc(N4CCNCC4)cn3)nc2n(C2CCCC2)c1=O [Palbociclib]; details: max 10 µM
Outline: as §1

[5] = compound: CC(C)n1c(=O)n(C)c2cnc3cc(F)c(-c4ccc(OCCCN5CCCCC5)nc4)cc3c21 [AZD1390]; details: max 0.3 µM
Outline: as §1

[6] = compound: CC1(C)CCC(CN2CCN(c3ccc(C(=O)NS(=O)(=O)c4ccc(NCC5CCOCC5)c([N+](=O)[O-])c4)c(Oc4cnc5[nH]ccc5c4)c3)CC2)=C(c2ccc(Cl)cc2)C1 [Venetoclax]; details: max 1 µM
Outline: as §1

[7] = compound: CC1=C(C(=CC=C1)Cl)NC(=O)C2=CN=C(S2)NC3=CC(=NC(=N3)C)N4CCN(CC4)CCO [Dasatinib]; details: max 2 µM
Outline: as §1

[8] = compound: CC1=CN2[C@@H](C1)C=NC3=CC(=C(C=C3C2=O)OC)OCCCCCOC4=C(C=C5C(=C4)N=C[C@@H]6CC(=CN6C5=O)C)OC [SG3199]; details: max 0.001 µM
Outline: as §1

[9] = compound: CCN(CCO)CCCOc1ccc2c(Nc3cc(CC(=O)Nc4cccc(F)c4)[nH]n3)ncnc2c1 [AZD2811]; details: max 1 µM
Outline: as §1

[10] = compound: CCc1c2c(nc3ccc(O)cc13)-c1cc3c(c(=O)n1C2)COC(=O)[C@]3(O)CC [SN-38]; details: max 0.3 µM
Outline: as §1

[11] = compound: CN(C)CCCOc1ccc(-c2ccc3ncc4c(c3c2)n(C2CCOCC2)c(=O)n4C)cn1 [AZD0156]; details: max 3 µM
Outline: as §1

[12] = compound: CN(CC[C@H](CSC1=CC=CC=C1)NC2=C(C=C(C=C2)S(=O)(=O)NC(=O)C3=CC=C(C=C3)N4CCC(CC4)[C@H](C5=CC=CC=C5C6=CC=C(C=C6)Cl)O)S(=O)(=O)C(F)(F)F)CCO [AZD4320]; details: max 1 µM
Outline: as §1

[13] = compound: COc1cc(Nc2ncc3c(n2)-c2ccc(Cl)cc2C(c2c(F)cccc2OC)=NC3)ccc1C(=O)O [Alisertib]; details: max 10 µM
Outline: as §1

[14] = compound: COc1cc2ncnc(Nc3ccc(F)c(Cl)c3)c2cc1OCCCN1CCOCC1 [Gefitinib]; details: max 10 µM
Outline: as §1

[15] = compound: COc1cccc(OCCCN)c1-c1cc(Nc2cnc(C#N)cn2)n[nH]1 [Prexasertib]; details: max 1 µM
Outline: as §1

[16] = compound: COc1cccc2c1C(=O)c1c(O)c3c(c(O)c1C2=O)C[C@@](O)(C(=O)CO)C[C@@H]3O[C@H]1C[C@H](N)[C@H](O)[C@H](C)O1 [Doxorubicin]; details: max 1 µM
Outline: as §1

[17] = compound: COc1nnc2ccc(N3CCC(c4ccc(OCCN5CCN(C)C(=O)[C@H]5C)cc4)CC3)nn12 [AZD5153]; details: max 1 µM
Outline: as §1

[18] = compound: CS(=O)(=O)CCNCc1ccc(-c2ccc3ncnc(Nc4ccc(OCc5cccc(F)c5)c(Cl)c4)c3c2)o1 [Lapatinib]; details: max 10 µM
Outline: as §1

[19] = compound: C[C@@H](Nc1cc(F)cc(F)c1)c1cc(C(=O)N(C)C)cc2c(=O)cc(N3CCOCC3)oc12 [AZD8186]; details: max 3 µM
Outline: as §1

[20] = compound: C[C@@H](Oc1cc(-c2cnn(C3CCNCC3)c2)cnc1N)c1c(Cl)ccc(F)c1Cl [Crizotinib]; details: max 10 µM
Outline: as §1

[21] = compound: C[C@@H](c1ccc2nccn2c1)n1nnc2ncc(-c3cnn(C)c3)nc21 [Savolitinib]; details: max 1 µM
Outline: as §1

[22] = compound: C[C@@H]1COCCN1C2=NC(=NC(=C2)C3(CC3)[S@](=N)(=O)C)C4=C5C=CNC5=NC=C4 [AZD6738]; details: max 10 µM
Outline: as §1

[23] = compound: Cc1c2c(nn1C)CSCc1cc(n(C)n1)CSc1cc(c3ccccc3c1)OCCCc1c(C(=O)O)n(C)c3c-2c(Cl)ccc13 [AZD5991]; details: max 1 µM
Outline: as §1

[24] = compound: Cc1cc2ncnn2cc1Nc1ncc2c(n1)n(C1CCOCC1)c(=O)n2C [AZD7648]; details: max 10 µM
Outline: as §1

[25] = compound: Cc1nc(-c2cn3c(n2)-c2ccc(-c4cnn(C(C)(C)C(N)=O)c4)cc2OCC3)n(C(C)C)n1 [Taselisib]; details: max 10 µM
Outline: as §1

[26] = compound: Cn1cnc2c(F)c(Nc3ccc(Br)cc3Cl)c(C(=O)NOCCO)cc21 [Selumetinib]; details: max 10 µM
Outline: as §1

[27] = compound: O=C(c1cc(Cc2n[nH]c(=O)c3ccccc23)ccc1F)N1CCN(C(=O)C2CC2)CC1 [Olaparib]; details: max 10 µM
Outline: as §1

[28] = compound: NC1(c2ccc(-c3nc4ccn5c(=O)[nH]nc5c4cc3-c3ccccc3)cc2)CCC1 [MK-2206]; details: max 10 µM
Outline: as §1

Cell Line	IC50, cell viability 72 h [1] [nM]	IC50, cell viability 72 h [2] [nM]	IC50, cell viability 72 h [3] [nM]	IC50, cell viability 72 h [4] [nM]	IC50, cell viability 72 h [5] [nM]	IC50, cell viability 72 h [6] [nM]	IC50, cell viability 72 h [7] [nM]	IC50, cell viability 72 h [8] [nM]	IC50, cell viability 72 h [9] [nM]	IC50, cell viability 72 h [10] [nM]	IC50, cell viability 72 h [11] [nM]	IC50, cell viability 72 h [12] [nM]	IC50, cell viability 72 h [13] [nM]	IC50, cell viability 72 h [14] [nM]	IC50, cell viability 72 h [15] [nM]	IC50, cell viability 72 h [16] [nM]	IC50, cell viability 72 h [17] [nM]	IC50, cell viability 72 h [18] [nM]	IC50, cell viability 72 h [19] [nM]	IC50, cell viability 72 h [20] [nM]	IC50, cell viability 72 h [21] [nM]	IC50, cell viability 72 h [22] [nM]	IC50, cell viability 72 h [23] [nM]	IC50, cell viability 72 h [24] [nM]	IC50, cell viability 72 h [25] [nM]	IC50, cell viability 72 h [26] [nM]	IC50, cell viability 72 h [27] [nM]	IC50, cell viability 72 h [28] [nM]
KYSE-140 (Esophageal Squamous Cell Carcinoma)	1660	423	858	> 10000	> 300	> 1000	1230	> 1	> 1000	> 300	> 3000	> 1000	> 10000	1930	12	> 1000	827	7250	> 3000	> 10000	> 1000	660	> 1000	> 10000	1130	> 10000	> 10000	
LS-411N (Colorectal Carcinoma)	7040	412	44.7	> 10000	> 300	> 1000	> 2000	> 1	> 1000	> 300	> 3000	> 1000	> 10000	> 10000	42.4	> 1000	169	> 10000	> 3000	> 10000	> 1000	4060	> 1000	> 10000	> 10000	1340	> 10000	> 10000
NCI-H716 (Colorectal Carcinoma)	> 10000	1600	> 1000	> 10000	> 300	> 1000	> 2000	> 1	> 1000	> 300	> 3000	> 1000	2230	> 10000	181	> 1000	775	> 10000	> 3000	> 10000	> 1000	> 10000	> 1000	> 10000	> 10000	> 10000	> 10000	
NCI-H2228 (Lung Adenocarcinoma)	> 10000	2870	955	> 10000	> 300	> 1000	> 2000	> 1	> 1000	82.4	> 3000	> 1000	8940	> 10000	182	557	> 1000	> 10000	> 3000	5480	> 1000	> 10000	> 1000	> 10000	2010	> 10000	> 10000	
OACp4C (Esophageal Adenocarcinoma)	1630	342	56.8	> 10000	> 300	> 1000	180	> 1	618	104	> 3000	117	1900	> 10000	116	323	695	2120	> 3000	3560	> 1000	3030	> 1000	> 10000	93.1	5810	> 10000	
RH-41 (Rhabdomyosarcoma)	314	729	> 1000	> 10000	> 300	> 1000	> 2000	> 1	> 1000	57	> 3000	87	3430	> 10000	23.1	476	96.8	> 10000	> 3000	1980	> 1000	4120	88.5	> 10000	93.1	> 10000	> 10000	
huH-1 (Hepatocellular Carcinoma)	> 10000	2520	> 1000	> 10000	> 300	> 1000	> 2000	> 1	> 1000	68	> 3000	> 1000	> 10000	> 10000	93	> 1000	> 1000	> 10000	> 3000	> 10000	> 1000	5640	> 1000	> 10000	> 10000	> 10000	> 10000	
